Laboratory results from publication PMC9851200, “Multiparameter phenotypic screening for endogenous TFEB and TFE3 translocation identifies novel chemical series modulating lysosome function” (Autophagy, 2022).

Legend:
Format in all cases: binding
[1] = molecular target: T1, kinases (KINOMEscan panel) (Homo sapiens, UniProt O15111)
T1 sequence (O15111 1-745): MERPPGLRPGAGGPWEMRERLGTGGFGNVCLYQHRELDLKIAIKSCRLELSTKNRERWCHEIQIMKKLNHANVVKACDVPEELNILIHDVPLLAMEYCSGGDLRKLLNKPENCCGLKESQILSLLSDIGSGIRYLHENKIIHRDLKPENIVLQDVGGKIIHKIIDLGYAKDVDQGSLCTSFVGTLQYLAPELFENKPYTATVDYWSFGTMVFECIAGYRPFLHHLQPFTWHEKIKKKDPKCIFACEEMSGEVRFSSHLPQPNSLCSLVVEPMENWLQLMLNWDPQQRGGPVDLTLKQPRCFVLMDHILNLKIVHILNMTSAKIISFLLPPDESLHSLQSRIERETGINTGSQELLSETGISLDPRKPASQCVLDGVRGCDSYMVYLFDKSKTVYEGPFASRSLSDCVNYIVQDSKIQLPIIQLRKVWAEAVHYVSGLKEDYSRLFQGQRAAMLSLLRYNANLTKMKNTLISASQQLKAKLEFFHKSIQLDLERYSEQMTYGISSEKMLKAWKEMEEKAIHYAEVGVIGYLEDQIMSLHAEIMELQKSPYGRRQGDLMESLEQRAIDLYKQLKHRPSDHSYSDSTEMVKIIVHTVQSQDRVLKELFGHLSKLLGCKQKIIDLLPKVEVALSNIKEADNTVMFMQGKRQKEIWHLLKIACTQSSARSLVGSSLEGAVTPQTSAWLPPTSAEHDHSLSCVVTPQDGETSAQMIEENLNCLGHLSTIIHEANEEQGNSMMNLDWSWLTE

[2] = molecular target: kinases (KINOMEscan panel) (Homo sapiens, UniProt P08631); details: kinase HCK; NEW KINOMEscan
kinases (KINOMEscan panel) (Homo sapiens, UniProt P08631), sequence (P08631 whole entry): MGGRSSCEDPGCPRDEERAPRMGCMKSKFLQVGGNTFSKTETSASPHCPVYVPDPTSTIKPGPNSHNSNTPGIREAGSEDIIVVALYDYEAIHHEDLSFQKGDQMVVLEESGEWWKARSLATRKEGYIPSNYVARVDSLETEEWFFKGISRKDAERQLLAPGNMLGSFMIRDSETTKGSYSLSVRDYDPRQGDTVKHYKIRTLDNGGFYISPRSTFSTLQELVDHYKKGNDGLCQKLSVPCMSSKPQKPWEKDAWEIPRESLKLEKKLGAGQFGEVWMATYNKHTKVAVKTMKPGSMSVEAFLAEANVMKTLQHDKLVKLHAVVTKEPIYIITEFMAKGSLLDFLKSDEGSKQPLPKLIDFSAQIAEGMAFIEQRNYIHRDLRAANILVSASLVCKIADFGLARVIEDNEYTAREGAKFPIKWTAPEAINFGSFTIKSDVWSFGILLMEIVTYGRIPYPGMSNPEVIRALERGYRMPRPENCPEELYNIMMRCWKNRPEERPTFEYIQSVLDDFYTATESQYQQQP

[3] = molecular target: kinases (KINOMEscan panel) (Homo sapiens, UniProt P42684); details: ABL2; NEW KINOMEscan
kinases (KINOMEscan panel) (Homo sapiens, UniProt P42684), sequence (P42684 whole entry): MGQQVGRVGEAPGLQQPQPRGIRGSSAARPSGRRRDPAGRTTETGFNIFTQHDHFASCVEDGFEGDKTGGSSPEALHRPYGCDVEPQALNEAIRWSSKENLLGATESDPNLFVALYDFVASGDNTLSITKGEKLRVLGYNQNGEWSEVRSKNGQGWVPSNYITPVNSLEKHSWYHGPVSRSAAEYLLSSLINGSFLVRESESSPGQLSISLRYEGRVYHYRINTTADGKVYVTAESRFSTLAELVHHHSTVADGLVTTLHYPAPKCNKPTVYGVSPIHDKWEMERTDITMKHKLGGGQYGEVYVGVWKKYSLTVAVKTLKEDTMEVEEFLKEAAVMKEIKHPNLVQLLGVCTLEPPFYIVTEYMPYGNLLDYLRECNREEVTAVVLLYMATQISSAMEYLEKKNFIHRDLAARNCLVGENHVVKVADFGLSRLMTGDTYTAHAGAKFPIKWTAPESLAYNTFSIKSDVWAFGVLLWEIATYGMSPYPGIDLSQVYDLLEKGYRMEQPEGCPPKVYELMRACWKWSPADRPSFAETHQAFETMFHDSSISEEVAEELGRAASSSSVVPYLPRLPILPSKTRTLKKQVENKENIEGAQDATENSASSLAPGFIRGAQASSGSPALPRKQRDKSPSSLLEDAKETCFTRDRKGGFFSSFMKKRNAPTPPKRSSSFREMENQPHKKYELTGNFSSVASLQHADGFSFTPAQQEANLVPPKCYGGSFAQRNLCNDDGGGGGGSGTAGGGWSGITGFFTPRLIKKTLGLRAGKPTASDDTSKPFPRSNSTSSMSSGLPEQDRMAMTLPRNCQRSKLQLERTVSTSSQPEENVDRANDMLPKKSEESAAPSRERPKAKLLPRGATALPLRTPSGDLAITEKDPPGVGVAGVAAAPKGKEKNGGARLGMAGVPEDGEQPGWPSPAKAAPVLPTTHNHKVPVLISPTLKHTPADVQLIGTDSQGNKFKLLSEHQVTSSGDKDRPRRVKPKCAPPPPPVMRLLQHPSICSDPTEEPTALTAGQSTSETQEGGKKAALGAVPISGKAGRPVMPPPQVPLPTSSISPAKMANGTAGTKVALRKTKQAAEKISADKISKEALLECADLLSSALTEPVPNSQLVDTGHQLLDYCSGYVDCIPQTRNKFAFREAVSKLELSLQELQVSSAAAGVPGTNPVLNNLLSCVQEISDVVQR

[4] = molecular target: T2, kinases (KINOMEscan panel) (Homo sapiens, UniProt P57058); details: kinase HUNK; NEW KINOMEscan
T2 sequence (P57058 1-714): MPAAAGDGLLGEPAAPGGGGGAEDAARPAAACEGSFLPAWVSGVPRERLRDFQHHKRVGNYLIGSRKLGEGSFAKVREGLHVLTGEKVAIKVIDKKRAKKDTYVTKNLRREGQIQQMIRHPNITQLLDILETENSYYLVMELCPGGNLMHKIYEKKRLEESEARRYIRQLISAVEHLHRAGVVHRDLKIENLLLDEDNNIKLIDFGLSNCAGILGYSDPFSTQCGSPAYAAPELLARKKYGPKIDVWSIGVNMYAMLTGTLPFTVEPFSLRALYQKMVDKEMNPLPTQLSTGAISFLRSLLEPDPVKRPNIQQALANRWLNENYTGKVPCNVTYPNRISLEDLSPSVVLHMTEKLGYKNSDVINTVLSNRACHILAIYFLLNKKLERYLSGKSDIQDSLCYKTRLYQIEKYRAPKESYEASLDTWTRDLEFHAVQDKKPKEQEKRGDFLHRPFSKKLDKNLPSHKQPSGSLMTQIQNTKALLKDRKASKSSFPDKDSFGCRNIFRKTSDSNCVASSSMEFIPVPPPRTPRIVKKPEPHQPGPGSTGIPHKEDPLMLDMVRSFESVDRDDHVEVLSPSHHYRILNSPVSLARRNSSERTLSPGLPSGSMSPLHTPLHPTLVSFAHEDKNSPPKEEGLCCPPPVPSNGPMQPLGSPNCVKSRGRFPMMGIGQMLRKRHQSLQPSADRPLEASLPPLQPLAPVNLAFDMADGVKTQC

[5] = molecular target: T3, kinases (KINOMEscan panel) (Homo sapiens, UniProt Q09013); details: kinase DMPK; NEW KINOMEscan
T3 sequence (Q09013 1-629): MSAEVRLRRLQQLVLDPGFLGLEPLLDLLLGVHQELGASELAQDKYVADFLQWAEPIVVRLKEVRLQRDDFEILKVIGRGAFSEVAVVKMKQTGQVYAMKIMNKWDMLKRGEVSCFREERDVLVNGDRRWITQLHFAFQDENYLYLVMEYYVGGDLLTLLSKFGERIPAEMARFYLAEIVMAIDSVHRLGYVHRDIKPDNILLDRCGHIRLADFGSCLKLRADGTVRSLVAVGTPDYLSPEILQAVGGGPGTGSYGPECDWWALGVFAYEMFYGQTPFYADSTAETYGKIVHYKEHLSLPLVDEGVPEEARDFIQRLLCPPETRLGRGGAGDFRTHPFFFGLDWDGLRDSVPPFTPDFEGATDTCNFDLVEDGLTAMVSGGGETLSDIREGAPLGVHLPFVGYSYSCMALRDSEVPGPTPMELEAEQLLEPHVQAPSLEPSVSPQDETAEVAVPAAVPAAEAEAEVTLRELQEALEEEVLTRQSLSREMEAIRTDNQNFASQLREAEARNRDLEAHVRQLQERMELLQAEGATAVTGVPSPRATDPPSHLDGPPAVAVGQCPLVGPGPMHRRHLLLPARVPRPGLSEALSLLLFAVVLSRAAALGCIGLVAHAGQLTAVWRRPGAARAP

[6] = molecular target: T4, kinases (KINOMEscan panel) (Homo sapiens, UniProt Q96BR1); details: kinase SGK3; NEW KINOMEscan
T4 sequence (Q96BR1 1-496): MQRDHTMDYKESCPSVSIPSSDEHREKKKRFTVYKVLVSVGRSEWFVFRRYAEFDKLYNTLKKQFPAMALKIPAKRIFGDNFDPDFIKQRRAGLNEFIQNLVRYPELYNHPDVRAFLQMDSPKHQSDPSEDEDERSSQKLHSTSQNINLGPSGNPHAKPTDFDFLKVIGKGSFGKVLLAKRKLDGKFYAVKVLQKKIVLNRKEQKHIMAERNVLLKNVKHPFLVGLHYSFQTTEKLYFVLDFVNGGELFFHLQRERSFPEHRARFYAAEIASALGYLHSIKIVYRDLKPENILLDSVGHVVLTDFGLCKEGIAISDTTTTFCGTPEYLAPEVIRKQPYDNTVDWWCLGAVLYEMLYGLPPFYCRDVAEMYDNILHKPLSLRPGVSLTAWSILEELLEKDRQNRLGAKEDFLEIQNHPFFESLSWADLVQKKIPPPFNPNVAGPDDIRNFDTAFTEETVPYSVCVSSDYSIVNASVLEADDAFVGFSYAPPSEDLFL

[7] = molecular target: kinases (KINOMEscan panel) (Homo sapiens, UniProt Q9BQI3)
kinases (KINOMEscan panel) (Homo sapiens, UniProt Q9BQI3), sequence (Q9BQI3 whole entry): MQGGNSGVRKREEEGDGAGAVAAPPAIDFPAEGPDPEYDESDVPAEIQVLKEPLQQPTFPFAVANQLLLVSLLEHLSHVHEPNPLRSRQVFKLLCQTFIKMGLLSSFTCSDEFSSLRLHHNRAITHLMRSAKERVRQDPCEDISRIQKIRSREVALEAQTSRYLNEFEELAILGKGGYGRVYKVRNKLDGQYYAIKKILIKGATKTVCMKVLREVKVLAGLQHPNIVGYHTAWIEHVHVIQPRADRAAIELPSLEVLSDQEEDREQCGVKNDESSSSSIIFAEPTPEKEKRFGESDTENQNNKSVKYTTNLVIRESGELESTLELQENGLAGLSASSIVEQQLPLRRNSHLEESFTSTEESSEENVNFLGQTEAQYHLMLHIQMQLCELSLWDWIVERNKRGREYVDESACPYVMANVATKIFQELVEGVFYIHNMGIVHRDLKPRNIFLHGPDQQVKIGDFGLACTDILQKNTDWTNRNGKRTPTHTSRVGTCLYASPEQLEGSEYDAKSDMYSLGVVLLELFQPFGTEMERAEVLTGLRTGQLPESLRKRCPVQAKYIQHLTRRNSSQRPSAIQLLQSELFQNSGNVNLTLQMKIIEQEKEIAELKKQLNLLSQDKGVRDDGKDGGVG

Row | SMILES | KINOMEscan CHUK/IKK-alpha [1] | KINOMEscan HCK [2] | KINOMEscan ABL2 [3] | KINOMEscan HUNK [4] | KINOMEscan DMPK [5] | KINOMEscan SGK3 [6] | KINOMEscan ElF2AK2/EIF2AK1 [7]
1 | Cc1cccc(-c2nc(Nc3ccc4nn(C)cc4c3)c3ccccc3n2)n1 [NK167] | 0 | 14 | 0 | 0 | 0 | 0 | 0
2 | Cc1cccc(-c2nc(N(C)c3ccc4ncsc4c3)c3ccccc3n2)n1 [NK-161] | 20 | 16 | 8 | 4 | 0 | 13 | 1
